Laboratory results from PMC8486872, “A rational blueprint for the design of chemically-controlled protein switches” (Nature Communications, 2021).
Values joined by “and” are separate entries in the source; they are usually repeats but may differ in a detail not shown here. Equal entries are not always repeated. Where two headings read alike, the source gives them in different places.

Tested on: SEAP expression in HEK293T cells
Assay: MISO designer cells (CDH-1 + CDH-3 dual switches)
Format: cell-based
Parameters: SEAP / Bottom (best-fit value) / Top (best-fit value) / Span (best-fit value): unit not given here
Conditions: for logIC50 (best-fit value): drug in nM; for SEAP, Drug-3 turn OFF CDH-3-TF (with 1 µM Drug-1): Fig S13f; for SEAP, Drug-3 turn OFF CDH-3-GEMS (+1 µM Drug-3): Fig S13g, representative data; for IC50: Homo sapiens, HEK-293T, read-out: IC50 (best-fit value)
From the text: Fig. 5 Orthogonal chemical switches enable implementation of multi-input multi-output control modes in mammalian cells. a Scheme of multi-inputs multi-outputs (MIMO) designer cells where two drugs control two different outputs. b, c Cells were co-transfected with AIR-1/2-GEMS and CDH-3-TF regulate SEAP and Luciferase expression, respectively. […] AIR-1/2-GEMS coupled with SEAP expression circuits were co-transfected with CDH-1/2-TF circuits which control the Luciferase production. Respective drug concentrations ranged from 0.001 nM to 1 µM. […]
We then engineered MISO cells (Fig. 5d) with CDH-1-TF and CDH-3-TF dual switches (Fig. 5e) that encode OFF behaviors controlled by Drug-1 and Drug-3. […] This output behavior is distinct from the typical SISO systems which only show two persistent states (high, low) (Fig. 2c, f). […] This type of output in biological systems could be utilized to produce graded levels of responses that are robust to minor oscillations in drug concentrations, and could be used to dissect fundamental biological processes but also to provide persistent response levels in translational applications.
1-TF and CDH-3-TF circuits. Drug-1 concentrations ranged from 0.001 nM to 1 µM (left) and 1 µM Drug-1 with serial diluted Drug-3 from 0.001 nM to 1 µM (right). g) Quantification of SEAP activity controlled […]
by CDH-1-GEMS and CDH-3-GEMS circuits. […]
Luciferase production (l). b-k) Each data point represents the mean of n = 3 biological replicates, and the dose-dependent curve were fitted using four-parameter nonlinear regression.

[1] = Fig5e SEAP, CDH-3-TF, four-parameter fit
[2] = Fig5f SEAP, CDH-3-GEMS, three-parameter fit

Structure (SMILES): COc1cc2c(cc1OC(C)C)[C@H](c1ccc(Cl)cc1)N(c1ccc(N(C)C[C@H]3CC[C@H](N4CCN(C)C(=O)C4)CC3)cc1)C(=O)C2 [Drug-3, NVP-CGM097]
- Bottom (best-fit value) [1]: 17.47
- HillSlope (best-fit value) [1]: -0.6148
- Span (best-fit value) [1]: 17.06
- Top (best-fit value) [1]: 34.53
- logIC50 (best-fit value) [1]: 1.333
- SEAP (Fig5e, turn OFF CDH-3-TF, 0.001 nM): 33.8408 and 34.0469 and 34.3351
- SEAP (Fig5e, turn OFF CDH-3-TF, 0.01 nM): 29.7183 and 31.0605 and 34.2655
- SEAP (Fig5e, turn OFF CDH-3-TF, 0.1 nM): 37.5532 and 35.9265 and 39.0056
- SEAP (Fig5e, turn OFF CDH-3-TF, 1 nM): 35.3902 and 29.1113 and 33.3839
- SEAP (Fig5e, turn OFF CDH-3-TF, 10 nM): 29.3646 and 23.7323 and 25.8725
- SEAP (Fig5e, turn OFF CDH-3-TF, 100 nM): 25.079 and 20.2253 and 26.0755
- SEAP (Fig5e, turn OFF CDH-3-TF, 1000 nM): 15.9296 and 18.8913 and 19.9566
- Bottom (best-fit value) [2]: 53.47
- Span (best-fit value) [2]: 48.26
- Top (best-fit value) [2]: 101.7
- logIC50 (best-fit value) [2]: 0.4646
- SEAP (Fig5f, turn OFF CDH-3-GEMS, 0.001 nM): 113.362 and 89.612 and 99.5052
- SEAP (Fig5f, turn OFF CDH-3-GEMS, 0.01 nM): 121.028 and 91.7365 and 92.479
- SEAP (Fig5f, turn OFF CDH-3-GEMS, 0.1 nM): 104.447 and 97.6051 and 99.9447
- SEAP (Fig5f, turn OFF CDH-3-GEMS, 1 nM): 100.353 and 82.6179 and 86.7829
- SEAP (Fig5f, turn OFF CDH-3-GEMS, 10 nM): 58.8118 and 64.1853 and 65.9179
- SEAP (Fig5f, turn OFF CDH-3-GEMS, 100 nM): 45.2413 and 57.2529 and 77.3068
- SEAP (Fig5f, turn OFF CDH-3-GEMS, 1000 nM): 32.455 and 54.8353 and 61.4484
- SEAP, Drug-3 turn OFF CDH-3-TF (with 1 µM Drug-1) (Drug-3 0.001 nM with 1 µM Drug-1): 20.0495 U/L and 20.062 U/L and 15.0342 U/L
- SEAP, Drug-3 turn OFF CDH-3-TF (with 1 µM Drug-1) (Drug-3 0.01 nM with 1 µM Drug-1): 17.0461 U/L and 19.1502 U/L and 14.3967 U/L
- SEAP, Drug-3 turn OFF CDH-3-TF (with 1 µM Drug-1) (Drug-3 0.1 nM with 1 µM Drug-1): 19.7901 U/L and 16.3361 U/L and 16.2198 U/L
- SEAP, Drug-3 turn OFF CDH-3-TF (with 1 µM Drug-1) (Drug-3 1 nM with 1 µM Drug-1): 20.2218 U/L and 16.2578 U/L and 17.1111 U/L
- SEAP, Drug-3 turn OFF CDH-3-TF (with 1 µM Drug-1) (Drug-3 10 nM with 1 µM Drug-1): 16.1201 U/L and 11.9157 U/L and 15.1062 U/L
- SEAP, Drug-3 turn OFF CDH-3-TF (with 1 µM Drug-1) (Drug-3 100 nM with 1 µM Drug-1): 12.136 U/L and 6.982 U/L and 12.7567 U/L
- SEAP, Drug-3 turn OFF CDH-3-TF (with 1 µM Drug-1) (Drug-3 1000 nM with 1 µM Drug-1): 12.5352 U/L and 7.0164 U/L and 6.482 U/L
- SEAP, Drug-3 turn OFF CDH-3-GEMS (+1 µM Drug-3) (Drug-3 0.001 nM + 1 µM Drug-3): 32.0934 U/L and 36.9962 U/L and 29.2725 U/L
- SEAP, Drug-3 turn OFF CDH-3-GEMS (+1 µM Drug-3) (Drug-3 0.01 nM + 1 µM Drug-3): 28.8246 U/L and 27.8451 U/L and 33.3513 U/L
- SEAP, Drug-3 turn OFF CDH-3-GEMS (+1 µM Drug-3) (Drug-3 0.1 nM + 1 µM Drug-3): 25.7325 U/L and 31.532 U/L and 32.3299 U/L
- SEAP, Drug-3 turn OFF CDH-3-GEMS (+1 µM Drug-3) (Drug-3 1 nM + 1 µM Drug-3): 22.1832 U/L and 28.8305 U/L and 36.3315 U/L
- SEAP, Drug-3 turn OFF CDH-3-GEMS (+1 µM Drug-3) (Drug-3 10 nM + 1 µM Drug-3): 20.2059 U/L and 25.0579 U/L and 21.1125 U/L
- SEAP, Drug-3 turn OFF CDH-3-GEMS (+1 µM Drug-3) (Drug-3 100 nM + 1 µM Drug-3): 19.7003 U/L and 17.1154 U/L and 24.8794 U/L
- SEAP, Drug-3 turn OFF CDH-3-GEMS (+1 µM Drug-3) (Drug-3 1000 nM + 1 µM Drug-3): 16.9947 U/L and 17.5781 U/L and 20.7969 U/L
- IC50 (Fig5e SEAP, turn OFF CDH-3-TF, four-parameter fit): 21.5 nM
- IC50 (Fig5f SEAP, turn OFF CDH-3-GEMS, three-parameter fit): 2.92 nM
